Experimental data taken from patent US20220125746A1, “METHOD OF PREVENTING OR TREATING TREATMENT-INDUCED GASTROINTESTINAL INJURY” (priority 2019, published 2022).
Where a name gives a salt, the structure may show the parent alone.

Columns and labels:
[1] = molecular target: T1, PUMA/BCL-xL (Homo sapiens, UniProt Q9BXH1); test: Immunoprecipitation of HA-PUMA / V5-Bcl-xL from 293 lysates; format: binding; settings: 25 uM, 15 min, anti-HA immunoprecipitation, western blot
T1 construct: expressed in transfected cells; host or cells: HEK293 (human embryonic kidney 293) cells, Lipofectamine 2000; lysates used
T1 sequence (Q9BXH1 1-193): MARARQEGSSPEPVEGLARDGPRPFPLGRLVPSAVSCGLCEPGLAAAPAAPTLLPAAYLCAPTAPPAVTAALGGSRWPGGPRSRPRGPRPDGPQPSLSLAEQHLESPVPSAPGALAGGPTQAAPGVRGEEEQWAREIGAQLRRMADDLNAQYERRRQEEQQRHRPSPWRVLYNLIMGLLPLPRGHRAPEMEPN
Description: (FIG. 10A) Structure of the PUMA inhibitor lead compound (PUMAi). (FIG. 10B) Lysates of 293 cells transfected with individual plasmids for 24 hours were mixed in the indicated combinations. Lysates were incubated with vehicle or PUMA inhibitor (PUMAi, 25 μM) for 15 min before immunoprecipitation with an anti-HA antibody. The HA-bound proteins and input were analyzed by western blotting. (FIG. 10C) Lysates of 293 cells transfected with individual plasmids for 24 h were mixed in the indicated combinations. Lysates were incubated with vehicle or PUMA Inhibitor (PUMAi, 25 μM) for 15 min before immunoprecipitation with an anti-HA antibody. The HA-bound proteins and input were analyzed by western blotting. (FIG. 10D) Indicated colon cancer cell lines were treated with camptothecin (CPT, 500 nM) for 24 h. HCT 116 cells and PUMA KO HCT 116 cells have WT p53, others have no (KO) or mutant p53. Apoptosis was measured by nuclear fragmentation assay. Values are mean+SEM; n=3 independent experiments. (FIG. 10E) Cells were treated as in D for 24 h and analyzed by western blotting. Representative results are shown, and similar results were obtained in at least three independent experiments. […]

[2] = system: C57BL/6J mice; test: Survival and GI injury after three daily doses of CPT-11; format: in vivo, mouse
Description: Immediately after sacrifice, about 10-cm portion of the jejunum was removed and carefully rinsed with ice-cold saline. The tissue was opened longitudinally and tacked to a foam board for fixation overnight in 10% formalin. Tissues were then rolled up into “swiss rolls” and embedded in paraffin. For tumor analysis, flank tumors were removed, measured, and cut into pieces for either formalin fixation or flash freezing in a dry ice/ethanol bath. Tissue sections (5 um) were deparaffinized and rehydrated through graded ethanols. Histological analysis was performed by hematoxylin and eosin (H&E) staining.
; CPT-11). […] . […] BH3-only proteins BIM and NOXA were not induced by CPT-11 or affected by Puma KO (FIG. 8F). […] . […] . Histological analysis confirmed lethal GI injury in WT and p53 KO mice on day 5, showing severe loss of crypts and shortening of villi, which was abrogated in Puma KO mice (FIG. 1F).

[3] = system: mouse colonic organoids; test: Mouse colonic organoids treated with CPT; format: cell-based; settings: PUMAi 50 uM
Description: Fresh mucosal scrapings from 10 cm of jejunum were washed in cold PBS, resuspended in 700 ul of RNA lysis buffer, and homogenized in a Dounce homogenizer. RNA was isolated using the Quick-RNA MiniPrep kit (Zymo Research) according to the manufacturer's instructions. Organoids were freed from Matrigel using Cell Recovery Solution (Corning), as described in, before RNA isolation. Complementary DNA was generated from 2 ug of total RNA from mice or ˜100 ng of total RNA from colonic organoids and was pooled from three mice or three wells of organoid culture per treatment group using SuperScript III reverse transcriptase (Invitrogen) and random primers. Gene expression was normalized to Gapdh. Representative results are shown, and similar results were obtained in at least three independent experiments. Details on mouse and human primers are found in Tables 1 and 2.
Mouse crypt isolation, organoid development, and passage were done as previously described with minor modifications. In brief, the complete culture medium for mouse intestinal organoids was slightly modified as follows: advanced Dulbecco's modified Eagle medium (DMEM)/F12 (12634-010, Invitrogen) was supplemented with 100 units/ml penicillin/0.1 mg/ml streptomycin (Invitrogen), 2 mM GlutaMAX (ThermoFisher), 20% (vol/vol) FBS (S11150, ATLANTA Biologicals), and WRN-conditioned medium (50%, vol/vol). Freshly isolated crypts were cultured with the same medium plus 10 μM Y-27632 (Y0503 Sigma) and 100 μg/ml Primocin (ant-pm-1, InvivoGen). For CPT and PUMAi treatment, intestinal organoids were passaged and re-plated in 25 μL of Matrigel (356231, Corning) in 24-well plates 24 hours before treatment with CPT (0.5 μM, C9911, Sigma-Aldrich) and PUMAi (50 μM) for 24 hours. The CPT-containing medium was replaced with complete medium containing PUMAi (50 μM). Three groups (treatment control, CPT only, and CPT plus PUMAi) were set up. Organoids 100 μm or greater in diameter were enumerated on day 6 after CPT treatment. Similar results were obtained from at least three independent experiments with triplicate wells in each experiment.

OCCN1CCN(CC(O)COc2ccc3ccccc3c2)CC1 (stereo not drawn) [PUMAi, 1-[4-(2-hydroxyethyl)-1-piperazinyl]-3-(2-naphthyloxy)-2-propanol dihydrochloride]
inhibition of PUMA/BCL-xL interaction [1]: inhibit interaction of PUMA/BCL-xL | survival at the LD90 of CPT-11 ([2]; CPT-11 215 mg/kg per day x3, PUMAi 10 mg/kg 2 h before each dose, WT mice): 70% | CPT-11-induced lethality ([2]; CPT-11 180, 215, 250 mg/kg/day x3, PUMAi 10 mg/kg): decreased CPT-11-induced lethality at three different doses | GI injury by histological analysis ([2]; day 5, CPT-11 215 mg/kg per day x3, compared to WT mice): reduced GI injury | CPT-induced activation of WNT and NOTCH targets (Lgr5, CD44, Olfm4) ([3]; 24 h after CPT): suppressed CPT-induced activation of WNT and NOTCH targets | CPT-induced growth suppression and caspase-3 activation ([3]; CPT 500 nM 24 h): strongly blocked
